What was measured:
Assay type in all cases: in vivo
[1] = system: GK rat (Goto-Kakizaki rat); assay: Measurement of blood glucose level after loading glucose (dextrose)
Procedure: Specifically, each GK rat was allowed to orally ingest the Astilbe thunbergii extract and dextrose and its influence on a change in the blood glucose level was analyzed (Approach 5). In this analysis, an experiment group orally ingesting anagliptin, a DPP-IV inhibitor, was used as a positive control.
[Approach 5: Measurement of Blood Glucose Level after Loading Glucose]
(1) Japanese Pharmacopeia water for injection (a negative control)
(2) A solution having anagliptin dissolved in the water for injection (a positive control); administered at 10 mg/kg body weight
(3) A suspension having, the hydrous ethanol extract of Astilbe thunbergii prepared in the Test Example 2, suspended in the water for injection; administered at 100 mg/kg body weight or 300 mg/kg body weight
Administration and Measurement of Blood Glucose Level
Each GK rat (8-week-old male rat, 7 rats/experimental group) was fasted for 18 hours and its fasting blood glucose level was then measured. Thereafter, the test substance was orally administered to the rat using a disposable gastric probe and a disposable syringe. […] Blood was collected from the tail vein 30, 60, 90 and 120 minutes after the administration of dextrose, and the blood glucose level was measured using a simple type blood glucose meter (NIPRO Freestyle Freedom Lite, FS Blood Glucose Sensor Light, manufactured by Nipro Corporation).

[2] = system: GK rat (Goto-Kakizaki rat); assay: Measurement of blood glucose level after loading sucrose; details: 90 minutes after sucrose 2 g/kg; acarbose 10 mg/kg oral
Procedure: Each GK rat was fasted for 18 hours and its fasting blood glucose level was then measured. Thereafter, the test substance was orally administered to the rat using a disposable gastric probe and a disposable syringe. Two minutes after the administration of the test substance, starch (dissolved in purified water, at 2 g/kg body weight) was administered in a single oral dose. Blood was collected from the tail vein 30, 60, 90 and 120 minutes after the administration of starch, and the blood glucose level was measured using a simple type blood glucose meter (NIPRO Freestyle Freedom Lite, FS Blood Glucose Sensor Light, manufactured by Nipro Corporation).
As described above, since the digestion process from starch to dextrose depends on the enzyme activities of both α-amylase and α-glucosidase, it cannot be ruled out from the results of Test Example 3 that the Astilbe thunbergii extract might inhibit only one of the enzyme activities in the body of an animal (the activity of the other enzyme activity cannot be inhibited). Accordingly, the digestion inhibitory effect of Astilbe thunbergii extract was analyzed using sucrose for which the digestion process depends only on α-glucosidase. Specifically, in the Approach 4, the blood glucose was measured using “sucrose (dissolved in purified water, at 2 g/kg body weight)” instead of “starch (dissolved in purified water, at 2 g/kg body weight)”. […]

[3] = system: GK rat (Goto-Kakizaki rat); assay: Measurement of blood glucose level after loading starch; details: 60 minutes after starch 2 g/kg; acarbose 10 mg/kg body weight oral
Procedure: Each GK rat (Goto-Kakizaki rat) was allowed to orally ingest an Astilbe thunbergii extract and immediately thereafter to orally ingest starch, and the blood glucose level up to 2 hours later was measured over time (Approach 4). In the case of a GK rat, since hyperglycemia is caused due to its low insulin secretion amount after meal, it is possible to sensitively analyze the influence of drugs on the digestion and absorption of saccharides.
[Approach 4: Measurement of Blood Glucose Level after Loading Starch]
GK rats (male, 5 weeks old) were obtained from Japan SLC, Inc. and preliminarily bred for 1 week before use. Seven rats per experimental group were used.
(1) Japanese Pharmacopeia water for injection (a negative control))
(2) A solution having acarbose dissolved in the water for injection (a positive control); administered at 10 mg/kg body weight
(3) A suspension having the hydrous ethanol extract of Astilbe thunbergii suspended in the water for injection; administered at 100 mg/kg body weight or 300 mg/kg body weight […]
Each GK rat was fasted for 18 hours and its fasting blood glucose level was then measured. […] Blood was collected from the tail vein 30, 60, 90 and 120 minutes after the administration of starch, and the blood glucose level was measured using a simple type blood glucose meter (NIPRO Freestyle Freedom Lite, FS Blood Glucose Sensor Light, manufactured by Nipro Corporation).

Row | Compound | glucose AUC compared with negative control ([1]; 0 to 120 minutes after dextrose, anagliptin 10 mg/kg, extract 100 or 300 mg/kg) | time course of blood glucose level compared with negative control ([1]; after dextrose 2 g/kg, anagliptin 10 mg/kg oral, decrease since 60 minutes later) | blood glucose level [2] | blood glucose level [3]
1 | Cc1cc2ncc(C(=O)NCC(C)(C)NCC(=O)N3CCC[C@H]3C#N)cn2n1 [anagliptin] | significantly decreases the glucose AUC | began to decrease earlier than that in the negative control |  | 
2 | C[C@H]1O[C@H](O[C@H]2[C@H](O)[C@@H](O)[C@@H](O[C@H]3[C@H](O)[C@@H](O)C(O)O[C@@H]3CO)O[C@@H]2CO)[C@H](O)[C@@H](O)[C@@H]1N[C@H]1C=C(CO)[C@@H](O)[C@H](O)[C@H]1O (stereo partly shown) [acarbose] |  |  | 161 ± 45 mg/dL | 117 ± 43 mg/dL
